Molecular target: T1, 20S proteasome (chymotrypsin-like activity) (Oryctolagus cuniculus, UniProt G1T4Q9)
T1 sequence (G1T4Q9 1-263): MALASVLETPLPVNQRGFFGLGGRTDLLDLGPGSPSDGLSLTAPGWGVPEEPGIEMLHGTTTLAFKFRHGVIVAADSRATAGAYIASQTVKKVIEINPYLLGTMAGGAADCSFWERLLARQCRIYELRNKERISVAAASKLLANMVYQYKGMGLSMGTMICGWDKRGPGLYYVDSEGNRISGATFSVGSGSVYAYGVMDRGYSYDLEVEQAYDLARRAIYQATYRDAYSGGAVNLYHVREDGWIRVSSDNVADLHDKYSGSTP
Experiment: fluorogenic Suc-LLVY-AMC hydrolysis by purified […] proteasome, […] h at […]°C
Assay type: biochemical

Work on CCOC(=O)CN(C)C1=[S+][Au-]([Br])([Br])[S]1 [AUL12, [AuBr2(ESDT)]] yielded an IC50 of 1.13 µM.
